Measurements reported in patent US20050282824A1, “Substituted pyrimidines as inhibitors of bacterial type III protein secretion systems” (priority 2004, published 2005).

Tests used:
Type in all cases: cell-based
[1] = test system: Type III protein secretion of ExoU by P. aeruginosa PA103; experiment: Tertiary assay: Type III-dependent secretion of ExoU by P. aeruginosa PA103; conditions: Pseudomonas aeruginosa, read-out: ExoU IC50(uM)
Description: Tertiary assay: inhibition of Type III protein secretion of effectors from a Pseudomonas aeruginosa system. Type III protein secretion is used by P. aeruginosa to secrete several essential virulence determinants. One effector of the type III protein secretion system of P. aeruginosa PA 103 is the virulence determinants ExoU.
The amount of Type III-dependent secretion of ExoU by P. aeruginosa PA103 can be determined in a cell-based assay by quantification of the 73.9 kDa ExoU protein secreted into the extracellular medium. Such quantitation can be achieved by growing strain PA 103 in a deferrated medium in the presence of nitrilotriacetic acid (an inducer of Type III protein secretion in P. aeruginosa) and either in the presence or absence of putative inhibitors. After a prolonged growth period, the cells are sedimented and the supernatants concentrated by ammonium sulfate precipitation. The proteins in the resuspended pellets are separated by electrophoresis on SDS-polyacrylamide gels. After staining gels with Colloidal Blue™, the 73.9 kDa ExoU band is quantitated by scanning through an imager. The effects of inhibitors on the intensity of the ExoU band may be measured relative to that of untreated controls.

[2] = test system: SPI1 type III protein secretion of SipB by S. enterica; experiment: Secondary assay: Type III-dependent protein secretion of the SipB polypeptide by S. enterica; conditions: Salmonella enterica, read-out: SipB IC50(uM)
Description: Secondary assay: Type III-dependent protein secretion of the SipB polypeptide by S. enterica. The SipB protein of S. enterica is another effector of the SPI1 type III protein secretion system from S. enterica. In this cell-based procedure, the Type III-dependent secretion of SipB from the bacterial cytoplasm to the extracellular medium was measured through its reactivity with a cognate mouse monoclonal.
Salmonella enterica cells growing either in the presence or in the absence of inhibitors are induced for the production of SipB. Following an established period of growth the cells are sedimented and the amount of SipB present in the supernatant is quantified with a scanning imager following application of immunoblot techniques. Detection may employ an anti-SipB mouse monoclonal antibody (e.g., obtained from Jorge Galan, SUNY at Stony Brook, N.Y.) followed by treatment with commercially available sheep anti-mouse polyclonal antibody conjugated with horseradish peroxidase. Thereafter the membrane is treated with a peroxidase chemiluminescent substrate and exposed to film for an appropriate exposure time. Inhibition may be measured relative to untreated controls.

[3] = test system: SPI1 type III protein secretion of SopE'-'Bla by Salmonella enterica; experiment: Primary assay: Type III protein secretion of the chimeric SopE'-'Bla polypeptide by Salmonella enterica; conditions: read-out: SopE IC50(uM)
Description: Primary assay: Type III protein secretion of the chimeric SopE′-′Bla polypeptide by Salmonella enterica. This procedure is a cell-based assay that measures the type III-dependent secretion by Salmonella enterica of a plasmid-encoded chimeric polypeptide whose synthesis can be regulated, and which is endowed with an enzymatic activity that can be monitored […] by hydrolysis of a substrate that is unable to penetrate into the bacterial cytoplasm within the time constraints of the reaction. Thus, the colorimetric reaction is not influenced by SopE′-′Bla polypeptide in the bacterial cytoplasm. Instead, it effectively measures the amount of polypeptide that has been secreted from the S. enterica cytoplasm to the extracellular medium via type III system protein secretion.
The SopE′-′Bla recombinant polypeptide consists of two functionally distinct domains spliced together. The N-terminus domain is encoded by a polynucleotide region specifying the signal for type III secretion of the SopE polypeptide of S. enterica, an effector of the SPI1 type III protein secretion system. The C-terminus domain of SopE′-′Bla consists of a 263 amino acid peptide sequence that corresponds to the TEM-1 β-lactamase expressed by plasmid pBR322 but without its N-terminal signal sequence. The TEM-1 β-lactamase part of the SopE′-′Bla chimeric polypeptide is used as a reporter enzyme. It is capable of hydrolyzing nitrocefin resulting in a product whose accumulation can be monitored by colorimetric detection. The secretion of the SopE′-′Bla chimeric polypeptide from the cytoplasm to the extracellular medium is dependent on type III protein secretion.
For this procedure, cells grown under conditions known to favor a functional SPI1 secretion system are induced for expression of the SopE′-′Bla protein and grown either in the presence or in the absence of putative inhibitors for determined time. Nitrocefin is then added to the various cultures and its hydrolysis are used for quantitation. An inhibitor of Type III protein secretion is generally a compound that reduces the signal of the enzymatic reaction by decreasing the amount of SopE′-′Bla secreted into the extracellular medium.

Row | Compound | IC50 [1] [µM] | IC50 [2] [µM] | IC50 [3] [µM]
1 | O=C(NC(Cc1ccc(Cl)cc1)C(=O)O)c1cc(-c2cccc(C(F)(F)F)c2)nc(N2CCN(c3ccccc3)CC2)n1 (stereo in doubt) [Compound 31, (R)-3-(4-Chlorophenyl)-2-{[2-(4-phenyl-piperazin-1-yl)-6-(3-trifluoromethylphenyl)pyrimidine-4-carbonyl]amino}propionic acid] | 88.7 | 13.3 | 4.1
2 | O=C(N[C@H](Cc1ccc(Cl)cc1)C(=O)O)c1cc(N2CCc3ccccc3C2)nc(-c2cccc(C(F)(F)F)c2)n1 [Compound 7, (R)-3-(4-Chlorophenyl)-2-{[6-(3,4-dihydro-1H-isoquinolin-2-yl)-2-(3-trifluoromethylphenyl)pyrimidine-4-carbonyl]amino}propionic acid] | – | > 100 | 1.2
3 | O=C(N[C@H](Cc1ccc(Cl)cc1)C(=O)O)c1cc(N2CCc3ccccc3C2)nc(-c2ccc(C(F)(F)F)cc2)n1 [Compound 8, (R)-3-(4-Chlorophenyl)-2-{[6-(3,4-dihydro-1H-isoquinolin-2-yl)-2-(4-trifluoromethylphenyl)pyrimidine-4-carbonyl]amino}propionic acid] | – | > 100 | 2
4 | N#Cc1ccc(-c2nc(C(=O)N[C@H](Cc3ccc(Cl)cc3)C(=O)O)cc(N3CCc4ccccc4C3)n2)cc1 [Compound 10, (R)-3-(4-Chlorophenyl)-2-{[2-(4-cyanophenyl)-6-(3,4-dihydro-1H-isoquinolin-2-yl)pyrimidine-4-carbonyl]amino}propionic acid] | – | > 100 | 4.3
5 | O=C(N[C@@H](CSCc1ccccc1)C(=O)O)c1cc(N2CCN(c3ccccc3)CC2)nc(-c2ccc(Cl)c(Cl)c2)n1 [Compound 20, (R)-3-Benzylsulfanyl-2-{[2-(3,4-dichlorophenyl)-6-(4-phenyl-piperazin-1-yl)-pyrimidine-4-carbonyl]amino}propionic acid] | – | > 100 | 2.1
6 | O=C(N[C@@H](COCc1ccccc1)C(=O)O)c1cc(N2CCCCC2)nc(N2CCC(c3ccccc3)CC2)n1 [Compound 28, (S)-3-Benzyloxy-2-{[2-(4-phenylpiperidin-1-yl)-6-piperidin-1-yl-pyrimidine-4-carbonyl]amino}propionic acid] | – | 18.5 | 5.2
7 | CC1CCN(c2cc(C(=O)N[C@@H](CSCc3ccccc3)C(=O)O)nc(-c3ccc(Oc4ccccc4)cc3)n2)CC1 [Compound 37, (R)-3-Benzylsulfanyl-2-{[6-(4-methylpiperidin-1-yl)-2-(4-phenoxyphenyl)-pyrimidine-4-carbonyl]amino}propionic acid] | – | > 100 | 1.7
8 | CN1CCN(c2nc(C(=O)N[C@@H](CSCc3ccccc3)C(=O)O)cc(N3CCN(c4nccc(C(F)(F)F)n4)CC3)n2)CC1 [Compound 44, (R)-3-Benzylsulfanyl-2-({2-(4-methyl-piperazin-1-yl)-6-[4-(4-trifluoromethyl-pyrimidin-2-yl)piperazin-1-yl]pyrimidine-4-carbonyl}amino)propionic acid] | – | > 100 | 85
9 | CC1CCN(c2nc(C(=O)N[C@@H](CSCc3ccccc3)C(=O)O)cc(N3CCN(c4nccc(C(F)(F)F)n4)CC3)n2)CC1 [Compound 46, (R)-3-Benzylsulfanyl-2-({2-(4-methylpiperidin-1-yl)-6-[4-(4-trifluoromethyl-pyrimidin-2-yl)piperazin-1-yl]pyrimidine-4-carbonyl}amino)propionic acid] | – | 10.6 | 3.4
10 | CN(C)c1ccc(-c2nc(C(=O)N[C@@H](CSCc3ccccc3)C(=O)O)cc(N3CCN(c4nccc(C(F)(F)F)n4)CC3)n2)cc1 [Compound 50, (R)-3-Benzylsulfanyl-2-({2-(4-dimethylaminophenyl)-6-[4-(4-trifluoromethyl-pyrimidin-2-yl)piperazin-1-yl]pyrimidine-4-carbonyl}amino)propionic acid] | – | > 100 | 20.1
11 | O=C(N[C@@H](CSCc1ccccc1)C(=O)O)c1cc(N2CCN(c3nccc(C(F)(F)F)n3)CC2)nc(-c2ccc([N+](=O)[O-])cc2)n1 [Compound 52, (R)-3-Benzylsulfanyl-2-({2-(4-nitrophenyl)-6-[4-(4-trifluoromethylpyrimidin-2-yl)-piperazin-1-yl]pyrimidine-4-carbonyl}amino)propionic acid] | – | 15 | 10.4
12 | O=C(N[C@@H](COCc1ccccc1)C(=O)O)c1cc(N2CCN(c3nccc(C(F)(F)F)n3)CC2)nc(-c2ccc(F)cc2)n1 [Compound 54, (S)-3-Benzyloxy-2-({2-(4-fluorophenyl)-6-[4-(4-trifluoromethylpyrimidin-2-yl)-piperazin-1-yl]pyrimidine-4-carbonyl}amino)propionic acid] | – | 2.7 | 1.3
13 | O=C(N[C@@H](CSCc1ccccc1)C(=O)O)c1cc(N2CCN(c3nccc(C(F)(F)F)n3)CC2)nc(-c2ccc(F)cc2)n1 [Compound 55, (R)-3-Benzylsulfanyl-2-({2-(4-fluorophenyl)-6-[4-(4-trifluoromethylpyrimidin-2-yl)-piperazin-1-yl]pyrimidine-4-carbonyl}amino)propionic acid] | – | 20.5 | 2.4
14 | O=C(N[C@@H](COCc1ccccc1)C(=O)O)c1cc(N2CCN(c3nccc(C(F)(F)F)n3)CC2)nc(-c2cccs2)n1 [Compound 57, (S)-3-Benzyloxy-2-({2-thiophen-2-yl-6-[4-(4-trifluoromethylpyrimidin-2-yl)-piperazin-1-yl]pyrimidine-4-carbonyl}amino)propionic acid] | – | 13.3 | 28.7
15 | O=C(N[C@@H](CSCc1ccccc1)C(=O)O)c1cc(N2CCN(c3nccc(C(F)(F)F)n3)CC2)nc(-c2cccs2)n1 [Compound 58, (R)-3-Benzylsulfanyl-2-({2-thiophen-2-yl-6-[4-(4-trifluoromethylpyrimidin-2-yl)-piperazin-1-yl]pyrimidine-4-carbonyl}amino)propionic acid] | – | 10.6 | 4.5
16 | O=C(NC(Cc1ccc(Cl)cc1)C(=O)O)c1cc(N2CCN(c3nccc(C(F)(F)F)n3)CC2)nc(-c2cccs2)n1 (stereo not shown) [Compound 59, 3-(4-Chlorophenyl)-2-({2-thiophen-2-yl-6-[4-(4-trifluoromethylpyrimidin-2-yl)-piperazin-1-yl]pyrimidine-4-carbonyl}amino)propionic acid] | – | 17.1 | 1.8
17 | O=C(NC(Cc1ccc(Cl)cc1)C(=O)O)c1cc(N2CCN(c3nccc(C(F)(F)F)n3)CC2)nc(-c2ccoc2)n1 (stereo not shown) [Compound 62, 3-(4-Chlorophenyl)-2-({2-furan-3-yl-6-[4-(4-trifluoromethylpyrimidin-2-yl)-piperazin-1-yl]pyrimidine-4-carbonyl}amino)propionic acid] | – | 12.6 | 5.4
18 | C=C(NC(=O)c1cc(N2CCN(c3nccc(C(F)(F)F)n3)CC2)nc(-c2ccoc2)n1)C(=O)O [Compound 63, 2-({2-Furan-3-yl-6-[4-(4-trifluoromethylpyrimidin-2-yl)piperazin-1-yl]pyrimidine-4-carbonyl}amino)acrylic acid] | – | > 100 | 21.4
